These results are taken from patent US20080107719A1, “Transdermal drug delivery system” (priority 2006, published 2008).

Converted amounts (≈) assume the structure as drawn. Like-named read-outs stand apart in the source and are kept apart here. A value given as a limit tells only on which side of the number the result lay.

Data set [1] is described as follows: Half life (t1/2) in acidic and basic PH conditions. It is filed as physicochemical. Particulars: buffer.
Data set [2] in a line: Solubility in various PH medium. In kind it is physicochemical. As to conditions: media of various pH, aqueous buffer.
A short description of data set [3]: Log P (Octanol/water).
Data set [4] in a line: Pka determination. In kind it is physicochemical.
A short description of data set [5]: Solubility in PG. It is filed as physicochemical. Particulars: organic solvent or mixture.
Data set [6] can be described thus: Solubility in water.
Data set [7] has as its system rat. As to conditions: in vivo; cited from earlier work.
In data set [8] the test system is rat. As to conditions: cited from earlier work.
Data set [9] is described as follows: Stability in aqueous (PH1 and 14) tested by 3% hydrogen peroxide. In kind it is physicochemical.
Data set [10] in a line: Hygroscopicity (moisture sorption). In kind it is physicochemical.

For the compound `Cc1cccc(C(C)c2c[nH]c(=S)[nH]2)c1C` (stereo not drawn) [AGN 203818], the half-life in data set [1] (pH 1, PH1, read-out: t1/2 (days) PH1 (converted)) is 51 days; in [1] (pH 11, PH11, read-out: t1/2 (days) PH11 (converted)), 57 days. In addition, the solubility in data set [2] (in PH1-11, read-out: Solubility (μg/ml) in various PH medium) is 19.3 to 27.5 µg/mL (≈ 83.1 to 118 µM); in data set [5], more than 5100 µg/mL; in data set [6] (water) it was 24.5 µg/mL (≈ 105 µM). The logP in data set [3] (octanol/water) was 2.9 to 3.12. The pKa in data set [4] came out at 11.3.
As to `CN1CCCC1=O` [N-methylpyrrolidone], the “LD50 (skin)” value in data set [7] is 7 g/KG bodyweight.
For Polysorbate80, the “LD50 (Rat-Oral)” value in data set [8] is 34.5 ml/kg bodyweight.
Take `CC12CC3CC(C)(C1)CC(N)(C3)C2.Cl` [Memantine HCl]: the solubility in data set [2] (in PH 2-8, read-out: Solubility in various PH medium) is more than 1200 µg/mL. The “Stability in aqueous (PH1 and 14) tested by 3% hydrogen peroxide” value in data set [9] (PH1 and 14, 3% hydrogen peroxide) is given as “Stable”. Moreover, the “stability in both acidic and basic pH conditions” value in [9] (acidic and basic pH) is recorded as “high stability”. Also, the “Log P (Octanol/water)” value in data set [3] worked out at 3.28. The Hygroscopicity result in data set [10] was “Slightly hygroscopic”. Besides, in [10] (at 5-95% RH), the moisture sorption result is on record as “(<1.1% moisture”. Besides, the pKa in data set [4] worked out at 10.5. Also, the “PH of 1% aqueous solution” value in data set [6] (1% aqueous solution) was “(PH 5.5-6)”. Moreover, the solubility at 24 hr in data set [6] (water) stood at 45000 µg/mL.
